In US9545119B2, “Specific vanillyl lignans and use thereof as taste improvers” (SYMRISE AG, priority 2011, dated 2017):
Marks after values point to notes of the source that are not given here.

What was measured:
Type in all cases: in vivo
[1] = test system: caffeine solution containing 500 ppm; assay: Bitterness reduction in a bitter substance solution (expert panel), caffeine; details: for Reduction in the bitterness impression: * = significant; for Bitterness impression (on scale of 1-10) b) with test substance: 25 ppm test substance + 500 ppm caffeine, scale 1 (not bitter) to 10 (extremely bitter), panel mean; for Effect on bitterness (in words): statement in the description referring to Example 1
From the text: (§1) In order to quantify a reduction in the bitterness impression in a sample, the bitterness of a caffeine solution containing 500 ppm was compared by a panel of experts, in each case with a sample containing 500 ppm caffeine and also the respectively given quantity of a substance to be assessed (with regard to the ability thereof to reduce bitterness), with assessment on a scale from 1 (not bitter) to 10 (extremely bitter). For the evaluation, i.e. the calculation of the reduction (in %) of the bitterness impression, in each case, the mean values of the estimates by the expert panel for the caffeine solution and the sample to be compared, which contained caffeine and a substance under assessment were used. In addition to caffeine, other bitter substances such as theobromine, naringin, quinine hydrochloride dihydrate and salicin were tested using the same method.

300 ppm theobromine = assay: Bitterness reduction in a bitter substance solution (expert panel), theobromine; details: for Reduction in the bitterness impression: 25 ppm test substance + 300 ppm theobromine vs theobromine alone; for Bitterness impression (on scale of 1-10) b) with test substance: 25 ppm test substance + 300 ppm theobromine, scale 1-10
From the text: as §1

[2] = test system: 750 ppm epigallocatechin gallate (EGCG); assay: Bitterness and astringency reduction in a bitter substance solution over time (expert panel); details: 100 ppm test substance + 750 ppm EGCG; time 0 s
100 ppm naringin = assay: Bitterness reduction in a bitter substance solution (expert panel), naringin; details: for Reduction in the bitterness impression: 25 ppm test substance + 100 ppm naringin vs naringin alone, * = significant; for Bitterness impression (on scale of 1-10) b) with test substance: 25 ppm test substance + 100 ppm naringin, scale 1-10
From the text: as §1

[3] = test system: 750 ppm epigallocatechin gallate (EGCG); assay: Bitterness and astringency reduction in a bitter substance solution over time (expert panel); details: 100 ppm test substance + 750 ppm EGCG
From the text: In order to quantify the reduction in the bitterness or astringency impression in a sample over a particular period of time, the bitterness or astringency of a solution containing 750 ppm epigallocatechin gallate (EGCG) was compared by a panel of experts, in each case with a sample containing 750 ppm epigallocatechin gallate and also the respectively shown quantity of a substance to be assessed (with regard to the ability thereof to reduce bitterness and/or astringency), in this case matairesinol (Compound 1-(−)).
Assessment was carried out on a scale from 1 (not bitter) to 10 (extremely bitter) or 1 (not astringent) to 10 (extremely astringent). The assessment by the panelists was carried out at specified time points (10 seconds, 30 seconds, 50 seconds and 70 seconds after ingestion of the respective sample). The samples were assessed by the panellists one after another following neutralisation. For the evaluation, i.e. the calculation of the reduction (in %) of the bitterness impression or astringency impression, at each time point, the mean values of the estimates by the expert panel for the epigallocatechin gallate solution and the sample to be compared therewith which contained the epigallocatechin gallate and the substance under assessment (in this case: matairesinol (Compound 1-(−)) were used.

250 ppm salicin = assay: Bitterness reduction in a bitter substance solution (expert panel), salicin
From the text: as §1

[4] = test system: 5 ppm quinine hydrochloride dihydrate; assay: Bitterness reduction in a bitter substance solution (expert panel), quinine hydrochloride dihydrate
From the text: as §1

[5] = 25 ppm test substance + 500 ppm caffeine vs 500 ppm caffeine alone

Question: What does the source list for `COc1cc(C2c3cc(O)c(OC)cc3CC(CO)C2CO)ccc1O` (single isomer, unassigned; (+)) [(+)-isolariciresinol (5-(+)), 1,2,3,4-tetrahydro-7-hydroxy-1-(4-hydroxy-3-methoxy-phenyl)-6-methoxy-2,3-naphthalenedimethanol]?
Answer: Reduction in the bitterness impression [1, 5]: 10.3%; Bitterness impression (on scale of 1-10) b) with test substance [1]: 4.1 ± 2.21

Question: `COc1cc([C@@H]2c3cc(O)c(OC)cc3C[C@H]3C(=O)OC[C@@H]23)ccc1O` [(−)-α-conidendrin (6-(−)), (3aR,9R,9aS)-7-hydroxy-9-(4-hydroxy-3-methoxyphenyl)-6-methoxy-3a,4,9,9a-tetrahydro-1H-benzo[f][2]benzofuran-3-one] was tested. Which “Reduction in the bitterness impression” value [1, 5] did it give?
Answer: 20.8%

Question: And the “Bitterness impression (on scale of 1-10) b) with test substance” value [1]?
Answer: 2.5 ± 0.94

Question: How did the “Reduction in the bitterness impression” value [1, 5] turn out when `COc1cc(C[C@H]2C(=O)OC[C@@H]2[C@H](O)c2ccc(O)c(OC)c2)ccc1O` [(−)-hydroxymatairesinol(2-(−)), (3R,4R)-4-[(S)-hydroxy-(4-hydroxy-3-methoxy-phenyl)methyl]-3-[(4-hydroxy-3-methoxyphenyl)methyl]oxolan-2-one] was run?
Answer: 41.9%*

Question: What about the “Bitterness impression (on scale of 1-10) b) with test substance” value [1] of the same molecule?
Answer: 2.6 ± 1.72

Question: What does the source list for `COc1cc(C[C@H]2COC(=O)[C@@H]2Cc2ccc(O)c(OC)c2)ccc1O` [(−)-matairesinol (1-(−)), (3R,4R)-3,4-bis[(4-hydroxy-3-methoxyphenyl)methyl]oxolan-2-one]?
Answer: Reduction in the bitterness impression (300 ppm theobromine): 24.7%; Bitterness impression (on scale of 1-10) b) with test substance (300 ppm theobromine): 3.4 ± 1.49; % Reduction in the astringency impression [2]: −11%; % reduction in the bitterness impression [2]: −15%; Reduction in the bitterness impression [1, 5]: 35.5%*; Bitterness impression (on scale of 1-10) b) with test substance [1]: 2.7 ± 1.77; Reduction in the bitterness impression (100 ppm naringin): 15.1%; Bitterness impression (on scale of 1-10) b) with test substance (100 ppm naringin): 4.9 ± 2.38; % Reduction in the astringency impression ([3]; time 10 s): −10%*; % reduction in the bitterness impression ([3]; time 10 s): −30%*; % Reduction in the astringency impression ([3]; time 30 s): −15%; % reduction in the bitterness impression ([3]; time 30 s): −38%*; % Reduction in the astringency impression ([3]; time 50 s): −20%; % reduction in the bitterness impression ([3]; time 50 s): −33%*; % Reduction in the astringency impression ([3]; time 70 s): −23%; % reduction in the bitterness impression ([3]; time 70 s): −28%

Question: What does the source list for `COc1cc(C[C@@H](CO)[C@H](CO)Cc2ccc(O)c(OC)c2)ccc1O` [secoisolariciresinol, reference compound]?
Answer: Amplification of the bitterness impression (printed in column Reduction in the bitterness impression) ([1]; 25 ppm test substance + 500 ppm caffeine vs 500 ppm caffeine alone, comparative example): 34%; Bitterness impression (on scale of 1-10) b) with test substance [1]: 5.2 ± 2.6; Effect on bitterness (in words) [1]: amplifies the bitterness; Effect on bitterness (in words) ([1]; listed as Secoisolariciresinol): capable of amplifying bitter taste impressions

Question: Which results are given for `COc1cc(C[C@H]2C(=O)OC[C@@H]2Cc2ccc(OC)c(OC)c2)ccc1O` [(−)-arctigenin (4), (3R,4R)-4-[(3,4-dimethoxyphenyl)methyl]-3-[(4-hydroxy-3-methoxy-phenyl)methyl]oxolan-2-one]?
Answer: Reduction in the bitterness impression [1, 5]: 11.5%; Bitterness impression (on scale of 1-10) b) with test substance [1]: 2.8 ± 1.68

Question: What does the source list for `COc1cc(C[C@H]2CO[C@H](c3ccc(O)c(OC)c3)[C@H]2CO)ccc1O` [(+)-lariciresinol (3-(+)), 4-[[(3R,4R,5S)-5-(4-hydroxy-3-methoxyphenyl)-4-(hydroxy-methyl)-oxolan-3-yl]methyl]-2-methoxyphenol]?
Answer: Reduction in the bitterness impression (300 ppm theobromine): 10.7%; Bitterness impression (on scale of 1-10) b) with test substance (300 ppm theobromine): 3.7 ± 2.24; Reduction in the bitterness impression [1, 5]: 38.6%*; Bitterness impression (on scale of 1-10) b) with test substance [1]: 2.9 ± 1.41; Reduction in the bitterness impression (100 ppm naringin): 39.5%*; Bitterness impression (on scale of 1-10) b) with test substance (100 ppm naringin): 3.6 ± 1.75; Reduction in the bitterness impression (250 ppm salicin; 25 ppm test substance + 250 ppm salicin vs salicin alone): 17.1%; Bitterness impression (on scale of 1-10) b) with test substance (250 ppm salicin; 25 ppm test substance + 250 ppm salicin, scale 1-10): 5.7 ± 2.97; Reduction in the bitterness impression ([4]; 25 ppm test substance + 5 ppm quinine hydrochloride dihydrate vs quinine alone, * = significant): 30.9%*; Bitterness impression (on scale of 1-10) b) with test substance ([4]; 25 ppm test substance + 5 ppm quinine hydrochloride dihydrate, scale 1-10): 2.5 ± 1.02
